Laboratory results as given in US20100040738A1, “Extension Of Beverage Shelf-Stability By Solute-Ligand Complexes” (PepsiCo., Inc., priority 2008, published 2010).
≈ marks a conversion by molar mass, not a printed value. Where two headings read alike, the source gives them in different places.

Key:
spoilage organisms = experiment: MIC of antimicrobial candidates (Table II); type: cell-based
Procedure: “Minimal inhibitory concentration” (MIC) is another term for which no standard time period is included in the definition.
(§1) In each of the examples below, the period of incubation is 16 weeks which relates to the standard shelf life period for beverages distributed at ambient temperature. If a chemical simply retards growth for a period less than 16 weeks, then it will not fulfill the need of the manufacturer. The concentration of the chemical employed to prohibit spoilage is often reported as the Minimum Inhibitory Concentration (MIC). The MIC value of a candidate compound for use as a beverage preservative is the concentration of the candidate which permits the beverage to remain free of spoilage for a period of 16 weeks.

[1] = Solubility limit in model beverage system, non-complex form or cyclodextrin complex; type: physicochemical; conditions: for solubility limit / limit of solubility in beverage: non-complex form; for limit of solubility in beverage: across test beverages
Procedure: The base composition of the model beverage per liter is:
A model high acid beverage system (pH <4.6) of 10% juice content was prepared to test efficacy of methoxycinnamate either in the non-complex form or as the alpha (α) or beta (β) cyclodextrin-included (complex) form. The base composition of the model beverage per liter is:
A model low acid beverage system (pH ≧4.6) with high water activity (>0.97) was prepared to test efficacy of methoxycinnamate either in the non-complex form or as the alpha (α) or beta (β) cyclodextrin-included (complex) form. The base composition of the model beverage per liter is:
A model high acid beverage system (pH <4.6) of 10% juice content was prepared to test efficacy of trans, trans 2,4 decadienal either in the non-complex form or as the alpha (α) or beta (β) cyclodextrin-included (complex) form. The base composition of the model beverage per liter is:
A model low acid beverage system (pH ≧4.6) with high water activity (>0.97) was prepared to test efficacy of trans, trans 2,4 decadienal either in the non-complex form or as the alpha (α) or beta (β) cyclodextrin-included (complex) form. The base composition of the model beverage per liter is: […]

[2] = system: Saccharomyces cerevisiae, Zygosaccharomyces balii and Zygosaccharomyces bisporus; experiment: Inhibition of growth of 3 spoilage yeast in model beverage, 16 weeks incubation; type: cell-based; conditions: for amount in complex required to inhibit growth of 3 different spoilage yeast: in complex with alpha or beta cyclodextrin
Procedure: as §1
(§2) The base composition of the model beverage per liter is: […]
as §2
A model high acid beverage system (pH <4.6) of 10% juice content was prepared to test efficacy of methoxycinnamate either in the non-complex form or as the alpha (α) or beta (β) cyclodextrin-included (complex) form. The base composition of the model beverage per liter is: […]

[3] = high acid model beverage pH 3.4, 5% grape and 5% apple juice (Example 5)
[4] = low acid model tea beverage pH 5.3 (Examples 4 and 6)
[5] = at limit of solubility, summary of examples
[6] = at solubility limit concentration, low acid model tea beverage pH 5.3 (Examples 4 and 6)
[7] = in complex with α-cyclodextrin, low acid model tea beverage pH 5.3 (Examples 4 and 6)
[8] = in complex with β-cyclodextrin, low acid model tea beverage pH 5.3 (Examples 4 and 6)
[9] = high acid model beverage pH 3.4, 10% grape juice (Example 3)

## CCCCCCCCCCO [1-Decanol]
Spoilage organisms; 2688 h, read-out: MIC
  MIC: 24 µg/mL

## CC(=O)OCCC1CCCCC1 [2-Cyclohexylethyl acetate]
Spoilage organisms; 2688 h, read-out: MIC
  MIC: 102 µg/mL

## O=C(OCc1ccccc1)c1ccc(O)cc1 [Benzyl-4-hydroxbenzoate]
Spoilage organisms
  MIC: 68 ppm

## O=CC=Cc1ccccc1 [Cinnamaldehyde]
Spoilage organisms; 2688 h, read-out: MIC
  MIC: 66 µg/mL

## O=C(O)C=Cc1ccccc1 [Cinnamic acid]
Spoilage organisms; 2688 h, read-out: MIC
  MIC: 300 µg/mL

## O=C(O)CCCC1CCCCC1 [Cyclohexanebutyric acid]
Spoilage organisms; 2688 h, read-out: MIC
  MIC: 68 µg/mL

## CCCCCCCCCC=O [Decanal]
Spoilage organisms; 2688 h, read-out: MIC
  MIC: 47 µg/mL

## CCCCCCCCC(=O)OC [Methyl nonaoate]
Spoilage organisms
  MIC: 90 ppm

## CCCCCCCCC(=O)O [Nonanoic acid]
Spoilage organisms; 2688 h, read-out: MIC
  MIC: 63 µg/mL

## CCCCCC1CCC(=O)O1 (stereo not drawn) [Nonanoic lactone]
Spoilage organisms
  MIC: 63 ppm

## CCCOC(=O)c1ccccc1 [Propyl benzoate]
Spoilage organisms; 2688 h, read-out: MIC
  MIC: 66 µg/mL

## C/C=C/C=C/C(=O)O [Sorbic acid]
Spoilage organisms; 2688 h, read-out: MIC
  MIC: 1200 µg/mL

## CCCCC/C=C/C=C/C=O [Trans, trans, 2,4 decadienal]
Spoilage organisms
  MIC: 8 ppm
[1]; [3]
  solubility in the form of a complex with alpha or beta cyclodextrin: ≤ 280 µg/mL
  solubility limit: 5.4 µg/mL (≈ 35.5 µM)
[1]; [4]
  solubility in the form of a complex with alpha or beta cyclodextrin: ≤ 280 µg/mL
  solubility limit: 5.8 µg/mL (≈ 38.1 µM)
[1]; summary of examples
  limit of solubility in beverage: 57 µg/mL
  solubility in the form of a complex with alpha or beta cyclodextrin: ≤ 280 µg/mL
[2]; [5]
  effective as a stand alone chemical preservative: not effective
[2]; at solubility limit concentration, high acid model beverage pH 3.4, 5% grape and 5% apple juice (Example 5)
  effective as a stand alone chemical preservative: not effective
[2]; [6]
  effective as a stand alone chemical preservative: did not prove effective
[2]; summary of examples
  amount in complex required to inhibit growth of 3 different spoilage yeast: 57-124 ppm
[2]; in complex with α-cyclodextrin, high acid model beverage pH 3.4, 5% grape and 5% apple juice (Example 5)
  amount required to inhibit growth of 3 different spoilage yeast: 60 mg/L
[2]; [7]
  amount required to inhibit growth of 3 different spoilage yeast: 57 mg/L
[2]; in complex with β-cyclodextrin, high acid model beverage pH 3.4, 5% grape and 5% apple juice (Example 5)
  amount required to inhibit growth of 3 different spoilage yeast: 125 mg/L
[2]; [8]
  amount required to inhibit growth of 3 different spoilage yeast: 123 mg/L

## CCCCCCCC1CCC(=O)O1 (stereo not drawn) [Undecalactone]
Spoilage organisms
  MIC: 28 ppm

## CCCCCCCCCCC=O [Undecanal]
Spoilage organisms; 2688 h, read-out: MIC
  MIC: 34 µg/mL

## C/C(C=O)=C\c1ccccc1 [methyl trans cinnamylaldehyde]
Spoilage organisms
  MIC: 58.4 ppm

## COc1ccccc1C=CC=O [o-methoxycinnamylaldehyde]
Spoilage organisms
  MIC: 58 ppm

## C=C(C)C1CC=C(C=O)CC1 (stereo not drawn) [perillaldehyde]
Spoilage organisms; 2688 h, read-out: MIC
  MIC: 500 µg/mL

## CCCOC(=O)c1ccc(O)cc1 [propyl paraben, Propyl paraban]
[2]; summary of examples
  amount in complex required to inhibit growth of 3 different spoilage yeast: 510-600 ppm
[2]; in complex with α-cyclodextrin, high acid model beverage pH 3.4, 10% apple juice (Example 1)
  amount required to inhibit growth of 3 different spoilage yeast: 510 mg/L
[2]; in complex with α-cyclodextrin, low acid model beverage pH 5.8 (Example 2)
  amount required to inhibit growth of 3 different spoilage yeast: 510 mg/L
[2]; in complex with β-cyclodextrin, high acid model beverage pH 3.4, 10% apple juice (Example 1)
  amount required to inhibit growth of 3 different spoilage yeast: 600 mg/L
[2]; in complex with β-cyclodextrin, low acid model beverage pH 5.8 (Example 2)
  amount required to inhibit growth of 3 different spoilage yeast: 650 mg/L

## Cc1ccc(C(C)C)c(O)c1 [thymol]
Spoilage organisms; 2688 h, read-out: MIC
  MIC: 250 µg/mL

## methoxycinnamate
[1]; [9]
  solubility in the form of a complex with alpha or beta cyclodextrin: ≤ 3690 µg/mL
  solubility limit: 498 µg/mL
[1]; [4]
  solubility in the form of a complex with alpha or beta cyclodextrin: ≤ 3411 µg/mL
  solubility limit: 600 µg/mL
[1]; summary of examples
  limit of solubility in beverage: 498 to 600 µg/mL
  solubility in the form of a complex with alpha or beta cyclodextrin: ≤ 3600 µg/mL
[2]; [5]
  effective as a stand alone chemical preservative: not effective
[2]; at solubility limit concentration, high acid model beverage pH 3.4, 10% grape juice (Example 3)
  effective as a stand alone chemical preservative: not effective
[2]; [6]
  effective as a stand alone chemical preservative: did not prove effective
[2]; summary of examples
  amount in complex required to inhibit growth of 3 different spoilage yeast: 400-807 ppm
[2]; in complex with α-cyclodextrin, high acid model beverage pH 3.4, 10% grape juice (Example 3)
  amount required to inhibit growth of 3 different spoilage yeast: 800 mg/L
[2]; [7]
  amount required to inhibit growth of 3 different spoilage yeast: 800 mg/L
[2]; in complex with β-cyclodextrin, high acid model beverage pH 3.4, 10% grape juice (Example 3)
  amount required to inhibit growth of 3 different spoilage yeast: 420 mg/L
[2]; [8]
  amount required to inhibit growth of 3 different spoilage yeast: 420 mg/L
[2]; in complex with β-cyclodextrin, summary of examples
  MIC: 400 µg/mL
[2]; non-complex form, summary of examples
  MIC: > 600 µg/mL
